Source: PMC12461739, “Multi-targeted azacoumarin–cyanocinnamate hybrids induce G2/M arrest and apoptosis via tubulin, and COX-2/VEGFR modulation: insights from in vitro mechanistic basis and in vivo validation” (RSC Medicinal Chemistry, 2025)
“And” between values parts separate entries of the source, which are not always exact repeats. Identical values can stand only once.

Columns and labels:
[1] = Kidney histopathology (H&E); settings: compound 7 + EAC
Text: Additionally, liver and kidney tissues were excised from each animal for further evaluation. […] The second portion was fixed in 10% neutral buffered formalin for histopathological examination to assess tissue morphology and damage.[96,97]
Liver and kidney tissues were collected from all experimental groups at the end of the study and immediately fixed in 10% neutral buffered formalin. After fixation, the samples were dehydrated, embedded in paraffin, and sectioned at a thickness of 5 μm using a rotary microtome. […] Histopathological examination of renal tissue focused on identifying acute tubular injury (ATI), characterized by tubular epithelial cell flattening, necrosis, apical vacuolization, and loss of the brush border. These features were assessed using a semi-quantitative scoring system.[110] Hepatic tissue sections were evaluated for the severity of hepatocellular injury using a modified Brunt grading system, which includes assessment of hepatocyte ballooning, necrosis, inflammation, and other degenerative changes.

MCF-7 cells [2] = assay: Cell cycle analysis (PI flow cytometry); assay type: cell-based, human; settings: MCF-7, 7.653 μM (IC50), 24 h
Method: Cell cycle progression was examined using a propidium iodide (PI)-based staining protocol, adapted from standard manufacturer instructions and previously described methods. MCF-7 cells were seeded at a density of 2 × 10^5 cells per well in DMEM and incubated overnight under standard conditions (37 °C, 5% CO2). […] A DMSO-treated group served as the vehicle control. After treatment, cells were collected, washed twice with cold phosphate-buffered saline (PBS), and centrifuged at 2000 rpm for 5 minutes. The pellets were fixed in pre-chilled 70% ethanol and stored at −20 °C for 2 hours. After fixation, cells were washed again with PBS, centrifuged, and resuspended in PI/RNase staining solution. Samples were incubated for 30 minutes at 37 °C in the dark to allow for RNA degradation and proper DNA staining. Flow cytometric analysis was conducted using a BD FACSCalibur™ system (BD Biosciences, USA). PI fluorescence was detected using a 488 nm excitation laser and collected through the FL2 channel (585 nm bandpass filter). Cell cycle phase distribution (G0/G1, S, and G2/M) was analyzed using dedicated software.

COX-2 = molecular target: T1, COX-2 (Homo sapiens, UniProt P35354); assay: COX-2 inhibitor screening (fluorometric); assay type: biochemical
T1 construct: purchased BioVision K547-100
T1 sequence (P35354 18-604): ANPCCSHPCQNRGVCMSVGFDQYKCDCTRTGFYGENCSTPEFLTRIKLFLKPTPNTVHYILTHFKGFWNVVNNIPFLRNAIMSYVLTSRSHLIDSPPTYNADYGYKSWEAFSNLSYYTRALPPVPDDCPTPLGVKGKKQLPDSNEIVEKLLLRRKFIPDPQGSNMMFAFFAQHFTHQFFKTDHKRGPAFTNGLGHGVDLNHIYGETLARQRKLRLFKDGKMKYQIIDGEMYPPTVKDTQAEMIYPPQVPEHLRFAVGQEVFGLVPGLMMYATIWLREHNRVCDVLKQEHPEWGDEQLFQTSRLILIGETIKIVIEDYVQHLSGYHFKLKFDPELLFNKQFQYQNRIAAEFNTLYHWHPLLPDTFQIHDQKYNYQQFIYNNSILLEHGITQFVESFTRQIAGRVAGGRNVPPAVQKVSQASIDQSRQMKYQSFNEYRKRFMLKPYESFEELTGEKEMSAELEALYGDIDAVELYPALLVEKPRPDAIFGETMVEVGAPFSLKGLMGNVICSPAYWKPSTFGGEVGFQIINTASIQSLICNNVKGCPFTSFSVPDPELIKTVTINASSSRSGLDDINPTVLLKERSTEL
Method: COX-1 and COX-2 enzymes were reconstituted in sterile water (110 μL) and kept on ice until use. Arachidonic acid was activated by mixing 5 μL with 5 μL of NaOH, followed by a 10-fold dilution with water and vortexing. A reaction mixture (80 μL per well) was prepared by combining 76 μL of assay buffer, 1 μL of COX probe, 2 μL of 200-fold diluted COX cofactor, and 1 μL of COX-1 or COX-2 enzyme. This mix was added to each well, followed by 10 μL of the prepared arachidonic acid/NaOH solution to initiate the reaction. Fluorescence was recorded at 25 °C using a microplate reader. The percent inhibition was determined by comparing the fluorescence increase in treated wells relative to the enzyme control. IC50 values were calculated from the concentration–response curves using GraphPad Prism.

[3] = tested on: Ehrlich ascites carcinoma (EAC) cells; assay: EAC model: viable EAC cell count and ascitic tumor volume; settings: for total viable EAC cell count: 10 days
Method: To evaluate tumor burden in the experimental groups, ascitic fluid was collected from the peritoneal cavity using a sterile, graduated syringe. The volume of ascitic fluid was recorded for each animal. The collected fluid was then diluted with heparinized saline for viable cell counting. Cell viability and density were determined using the trypan blue exclusion method. A 0.4% (w/v) trypan blue solution was prepared by dissolving 0.4 g of dye in 100 mL of sterile distilled water and filtering it through a 0.22 μm membrane filter. Prior to counting, 10 μL of the ascitic cell suspension was mixed with an equal volume of trypan blue and incubated at room temperature for 2 minutes. Cells were loaded onto a hemocytometer (Thoma type, Germany) and examined under a light microscope at 40× magnification. Non-viable cells stained blue, whereas viable cells remained unstained. All measurements were performed in triplicate, and the results are expressed as mean ± SD.[93]
On day 1, all groups were injected i.p. with 2.5 × 10^6 viable EAC cells in 200 μL of sterile saline. Group 1 (EAC control) received EAC cells only and no further treatment. […] The compound was administered i.p. every other day (i.e., on days 2, 4, 6, 8, and 10), for a total of five doses over a 10 day treatment period. At the end of the experiment (day 11), ascitic fluid was collected from the peritoneal cavity of each animal. The number and viability of EAC cells were assessed using the trypan blue exclusion assay. Each experiment was performed in triplicate and independently replicated on at least three separate occasions. The results were presented as mean ± SD. Statistical comparisons between groups were conducted using GraphPad Prism, with p < 0.05 considered significant.[95]
On day 11, following the final treatment, ascitic fluid was collected from the peritoneal cavity using heparinized syringes for EAC cell viability and count analysis.

[4] = Serum liver and kidney function markers (ALT, AST, creatinine, urea)
Method: Blood samples were collected under light ether anesthesia via the retro-orbital venous plexus and centrifuged at 3000 rpm for 10 minutes. The resulting serum was separated and stored at −20 °C for biochemical analysis.
Serum alanine aminotransferase (ALT) and aspartate aminotransferase (AST) levels were measured as indicators of liver function using commercially available assay kits (BioVenic, NY, USA, (AST) Cat. No.: IVEK3681, (ALT) Cat. No.: IVEK3446), in accordance with the manufacturer's instructions. In the ALT assay, the enzyme catalyzes the conversion of alanine to pyruvate, which is then reduced to lactate by lactate dehydrogenase, resulting in the oxidation of NADH to NAD^+. This reaction causes a decrease in absorbance at 340 nm, which is proportional to ALT activity. Similarly, the AST assay is based on the transamination of aspartate to oxaloacetate, which then reacts with NADH in the presence of malate dehydrogenase, leading to a decrease in NADH absorbance at 340 nm. For each assay, 10 μL of serum was added to the respective substrate buffer and incubated at 37 °C for 30 minutes. The change in absorbance was recorded using a microplate reader at 340 nm. Enzymatic activities were calculated and expressed in units per liter (U L^−1). All measurements were performed in triplicate, and results are presented as mean ± SD.[98,99]
Serum creatinine and urea levels were assessed as indicators of renal function using colorimetric assay kits from BioAssay Systems (DICT-500, USA), according to the manufacturers' protocols. Creatinine concentration was determined based on a colorimetric enzymatic reaction. In this assay, creatinine is enzymatically converted to creatine and then to sarcosine, which is oxidized to produce hydrogen peroxide. The resulting hydrogen peroxide reacts with a chromogenic substrate in the presence of peroxidase to generate a colored product, the intensity of which is proportional to the creatinine concentration. Briefly, 10 μL of serum was mixed with 200 μL of working reagent, incubated at 25 °C for 5 minutes, and the absorbance was recorded at 510 nm using a microplate reader. Values were quantified against a standard curve and expressed in mg dL^−1. On the other hand, urea levels were measured based on an enzymatic reaction that produces a chromophore detectable at 340 nm. Specifically, 5 μL of serum was added to 200 μL of the assay reagent and incubated at 37 °C for 10 minutes. Absorbance was measured at 340 nm, and urea concentration was calculated using a standard curve and expressed as mg dL^−1.

MCF-7 cells [5] = assay: Annexin V-FITC/PI apoptosis assay; assay type: cell-based, human; settings: MCF-7, IC50 concentration, 24 h
Method: Apoptotic cell death was quantified using annexin V-FITC and propidium iodide (PI) staining, in accordance with the manufacturer's instructions (BioVision, USA; Cat No. K101-25), with minor protocol adjustments. MCF-7 cells were plated at a density of 2 × 10^5 cells per well in DMEM-containing supplements and incubated overnight at 37 °C in a humidified atmosphere with 5% CO2. […] After treatment, cells were harvested using 0.25% trypsin–EDTA, rinsed twice with ice-cold phosphate-buffered saline (PBS), and resuspended in 500 μL of annexin V binding buffer. To each sample, 5 μL of annexin V-FITC and 5 μL of propidium iodide (PI) were then added for staining. The staining mixture was incubated in the dark for 15 minutes at room temperature. Samples were analyzed on a BD FACSCalibur™ flow cytometer (BD Biosciences, USA). Fluorescence was detected using the FL1 channel (530 nm) for annexin V-FITC and the FL2 channel (585 nm) for PI. Quadrant gating was used to distinguish between viable cells (annexin V^−/PI^−), early apoptotic cells (annexin V^+/PI^−), late apoptotic cells (annexin V^+/PI^+), and necrotic cells (annexin V^−/PI^+).

Compound: CCOC(=O)/C(C#N)=C/c1ccc(Oc2c(C)c3cc(Br)c(O)c(Br)c3[nH]c2=O)cc1 [Compound 7, ethyl (E)-2-cyano-3-(4-((6,8-dibromo-7-hydroxy-4-methyl-2-oxo-1,2-dihydroquinolin-3-yl)oxy)phenyl)acrylate]
- nephropathy class [1]: class II
- glomerular involvement ([1]; EAC group approximately 25%): 15%
- cells in G2/M phase (MCF-7 cells [2]; control 7.57%): 36.21%
- S-phase cells (MCF-7 cells [2]; control 21.08%): 15.75%
- selectivity index (SI), COX-1/COX-2 (COX-2): 5.93
- IC50 (COX-2; read-out: IC50 toward COX-2): 1260 nM and 1300 nM
- reduction in viable EAC cells ([3]; 2.5 mg kg^−1, vs EAC control): 53.27%
- total viable EAC cell count ([3]; 2.5 mg kg^−1 i.p. every two days, EAC control 199.33 ± 4.15): 93.15 ± 7.19 × 10^6 cells
- reduction in viable EAC cells ([3]; 5 mg kg^−1, vs EAC control): 65.41%
- total viable EAC cell count ([3]; 5 mg kg^−1 i.p. every two days): 68.95 ± 2.00 × 10^6 cells
- reduction in viable EAC cells ([3]; 7.5 mg kg^−1, vs EAC control): 72.36%
- total viable EAC cell count ([3]; 7.5 mg kg^−1 i.p. every two days): 55.10 ± 2.15 × 10^6 cells
- reduction in viable EAC cells ([3]; 10 mg kg^−1, vs EAC control): 85.92%
- reduction of ascitic tumor volume ([3]; 10 mg kg^−1, vs untreated EAC group): 45.25%
- average ascitic tumor volume ([3]; 10 mg kg^−1, untreated EAC group 5.68 ± 0.15 mL): 3.11 ± 0.45 mL
- total viable EAC cell count ([3]; 10 mg kg^−1 i.p. every two days): 28.06 ± 1.69 × 10^6 cells
- reduction in viable EAC cells ([3]; 15 mg kg^−1, vs EAC control): 85.96%
- total viable EAC cell count ([3]; 15 mg kg^−1 i.p. every two days): 27.98 ± 0.39 × 10^6 cells
- serum creatinine ([4]; EAC + compound 7 (10 mg kg^−1 i.p.), EAC control 1.7 ± 0.04): 0.6 ± 0.02 mg/dL
- serum urea ([4]; EAC + compound 7 (10 mg kg^−1 i.p.), EAC control 94 ± 1.78): 44.83 ± 0.7 mg/dL
- serum ALT ([4]; EAC + compound 7 (10 mg kg^−1 i.p.), EAC control 140.66 ± 3.45): 49.83 ± 1.16 U L^−1
- serum AST ([4]; EAC + compound 7 (10 mg kg^−1 i.p.), EAC control 168.33 ± 3.7): 57.5 ± 1.56 U L^−1
- serum ALT ([4]; compound 7-control group, no EAC (10 mg kg^−1 i.p.), untreated 27.16 ± 0.94): 22.83 ± 0.6 U L^−1
- serum creatinine ([4]; compound 7-control group, no EAC, untreated 0.5 ± 0.02): 0.5 ± 0.03 mg/dL
- serum urea ([4]; compound 7-control group, no EAC, untreated 24.16 ± 1.07): 21.83 ± 0.6 mg/dL
- serum AST ([4]; compound 7-control group, no EAC, untreated 41.66 ± 1.3): 37.83 ± 0.94 U L^−1
- late apoptotic cells (MCF-7 cells [5]; control 0.12%): 8.41%
- early apoptotic cells (MCF-7 cells [5]; control 0.37%): 15.36%
- necrotic cell population (MCF-7 cells [5]; control 2.22%): 3.57%
